Assay [1] relates to Beet Armyworm (Spodoptera exigua, LAPHEG). The experiment in a line: Bioassays on Beet Armyworm (BAW), 128-well diet tray assay. The class given is in vivo. The note with it: Beet Armyworm, Table ABC Biological Results, read-out: BAW (rating). The procedure:
(§1) Certain molecules disclosed in this document were tested against BAW and CL using procedures described in the following examples. In the reporting of the results, the “BAW & CL Rating Table” was used (See Table Section).
Bioassays on BAW were conducted using a 128-well diet tray assay. One to five second instar BAW larvae were placed in each well (3 mL) of the diet tray that had been previously filled with 1 mL of artificial diet to which 50 μg/cm^2 of the test molecule (dissolved in 50 μL of 90:10 acetone-water mixture) had been applied (to each of eight wells) and then allowed to dry. Trays were covered with a clear self-adhesive cover, vented to allow gas exchange, and held at 25° C., 14:10 light-dark for five to seven days. Percent mortality was recorded for the larvae in each well; activity in the eight wells was then averaged. The results are indicated in the table entitled “Table ABC: Biological Results” (See Table Section).

The subject of assay [2] is Cabbage Looper (Trichoplusia ni, TRIPNI). The experiment in a line: Bioassays on Cabbage Looper (CL), 128-well diet tray assay. The note with it: Cabbage Looper, Table ABC Biological Results, read-out: CL (rating). The class given is in vivo. The procedure:
as §1
Bioassays on CL were conducted using a 128-well diet tray assay. One to five second instar CL larvae were placed in each well (3 mL) of the diet tray that had been previously filled with 1 mL of artificial diet to which 50 μg/cm^2 of the test molecule (dissolved in 50 μL of 90:10 acetone-water mixture) had been applied (to each of eight wells) and then allowed to dry. Trays were covered with a clear self-adhesive cover, vented to allow gas exchange, and held at 25° C., 14:10 light-dark for five to seven days. Percent mortality was recorded for the larvae in each well; activity in the eight wells was then averaged. The results are indicated in the table entitled “Table ABC: Biological Results” (See Table Section).

As to `O=C(CSC(F)(F)F)Nc1c(F)ccc(NC(=O)c2cc(NC(=O)[C@H]3[C@H](c4cc(C(F)(F)F)cc(C(F)(F)F)c4)C3(Cl)Cl)ccc2Cl)c1F` (relative stereo) [F48, trans-5-(3-(3,5-Bis(trifluoromethyl)phenyl)-2,2-dichlorocyclopropane-1-carboxamido)-2-chloro-N-(2,4-difluoro-3-(2-((trifluoromethyl)thio)acetamido)phenyl)benzamide], the pest or weed control at 50 µg/cm2 in assay [1] and in assay [2] was 50 to 100% in each case.

On to `CSC(F)(F)C(=O)Nc1c(F)ccc(NC(=O)c2cc(NC(=O)[C@H]3[C@H](c4ccc(F)c(C(F)(F)F)c4)C3(Cl)Cl)ccc2Cl)c1F` [F1, 2-Chloro-5-((1R,3R)-2,2-dichloro-3-(4-fluoro-3-(trifluoromethyl)phenyl)cyclopropane-1-carboxamido)-N-(3-(2,2-difluoro-2-(methylthio)acetamido)-2,4-difluorophenyl)benzamide], for which the pest or weed control at 50 µg/cm2 in assay [1] and in assay [2] was 50 to 100% each time.

In the case of `O=C(CSc1ccncc1)Nc1c(F)ccc(NC(=O)c2cc(NC(=O)[C@H]3[C@H](c4ccc(F)c(C(F)(F)F)c4)C3(Cl)Cl)ccc2Cl)c1F` [F2, 2-Chloro-5-((1R,3R)-2,2-dichloro-3-(4-fluoro-3-(trifluoromethyl)phenyl)cyclopropane-1-carboxamido)-N-(2,4-difluoro-3-(2-(pyridin-4-ylthio)acetamido)phenyl)benzamide], the pest or weed control at 50 µg/cm2 in assay [1] and in assay [2] was 50 to 100% each time.

As for `O=C(CSc1ccc(F)cc1)Nc1c(F)ccc(NC(=O)c2cc(NC(=O)[C@H]3[C@H](c4ccc(F)c(C(F)(F)F)c4)C3(Cl)Cl)ccc2Cl)c1F` [F4, 2-Chloro-5-((1R,3R)-2,2-dichloro-3-(4-fluoro-3-(trifluoromethyl)phenyl)cyclopropane-1-carboxamido)-N-(2,4-difluoro-3-(2-((4-fluorophenyl)thio)acetamido)phenyl)benzamide], the pest or weed control at 50 µg/cm2 in assay [1] and in assay [2] was 50 to 100% in each case.

On to `O=C(CSCCC(F)(F)F)Nc1c(F)ccc(NC(=O)c2cc(NC(=O)[C@H]3[C@H](c4ccc(F)c(C(F)(F)F)c4)C3(Cl)Cl)ccc2Cl)c1F` [F5, 2-Chloro-5-((1R,3R)-2,2-dichloro-3-(4-fluoro-3-(trifluoromethyl)phenyl)cyclopropane-1-carboxamido)-N-(2,4-difluoro-3-(2-((3,3,3-trifluoropropyl)thio)acetamido)phenyl)benzamide], for which the pest or weed control at 50 µg/cm2 in assay [1] and in assay [2] was 50 to 100% throughout.

`O=C(CSCC(F)(F)F)Nc1c(F)ccc(NC(=O)c2cc(NC(=O)[C@H]3[C@H](c4cc(Cl)c(Cl)c(Cl)c4)C3(Cl)Cl)ccc2Cl)c1F` [F6, 2-Chloro-5-((1R,3R)-2,2-dichloro-3-(3,4,5-trichlorophenyl)cyclopropane-1-carboxamido)-N-(2,4-difluoro-3-(2-((2,2,2-trifluoroethyl)thio)acetamido)phenyl)benzamide]: the pest or weed control at 50 µg/cm2 in assay [1] and in assay [2] was 50 to 100% each time.

As to `CC(SC(F)(F)F)C(=O)Nc1c(F)ccc(NC(=O)c2cc(NC(=O)[C@H]3[C@H](c4cc(Cl)c(Cl)c(Cl)c4)C3(Cl)Cl)ccc2Cl)c1F` (stereo partly drawn) [F7, 2-Chloro-5-((1R,3R)-2,2-dichloro-3-(3,4,5-trichlorophenyl)cyclopropane-1-carboxamido)-N-(2,4-difluoro-3-(2-((trifluoromethyl)thio)propanamido)phenyl)benzamide], the pest or weed control at 50 µg/cm2 in assay [1] and in assay [2] was 50 to 100% each time.

Consider `O=C(CSC(F)(F)F)Nc1c(F)ccc(NC(=O)c2cc(NC(=O)[C@H]3[C@H](c4cc(Cl)c(Cl)c(Cl)c4)C3(Cl)Cl)ccc2Cl)c1F` [F8, 2-Chloro-5-((1R,3R)-2,2-dichloro-3-(3,4,5-trichlorophenyl)cyclopropane-1-carboxamido)-N-(2,4-difluoro-3-(2-((trifluoromethyl)thio)acetamido)phenyl)benzamide], for which the pest or weed control at 50 µg/cm2 in assay [1] and in assay [2] was 50 to 100% each time.

Source of the values: patent US20210015098A1, “MOLECULES HAVING PESTICIDAL UTILITY, AND INTERMEDIATES, COMPOSITIONS, AND PROCESSES, RELATED THERETO” (DOW AGROSCIENCES LLC, priority 2018, published 2021).
